# Source: patent US9045481B2 (priority 2012, dated 2015)
# Key:
# [1] = CNS penetration across the blood brain barrier; format: in vivo, mice
# Method: Mice are dosed with compounds. Brain to blood ratios are determined by HPLC and LC/MS/MS analysis following oral administration of the test compounds in mice.
# a3b4 nAChRs = a3b4 nAChRs (Homo sapiens, UniProt P30926+P32297); assay: Relative potency at a3b4 nAChRs (epibatidine-induced calcium response), cell line not stated; format: cell-based
# Method: Nicotinic functional assays are performed using the Molecular Devices FLIPR® Calcium 5 Assay Kit. HEK293 cells overexpressing a3β4, a4β2 or α7 (50,000 cells per well in 100 μl growth media) and are plated in clear bottom black walled 96-well microplates and incubated for 24-48 hours at 37° C., 5% CO2 until a 80-90% confluent monolayer is formed. On the day of the assay, 100 μl of Calcium 5 Dye is added to each well. Following addition of dye, cells are incubated at 25° C. for 60 minutes. Following dye loading, 50 μl of a 5× solution of reference or test compound of appropriate concentration range (0.01-30 μM), prepared in 20 mM HEPES pH 7.4 in HBSS, is added to each well. Plates are then transferred to the Molecular Devices Flexstation® which transfers 50 μL of a 5× solution (500 nM) of epibatine to each well to initiate the Ca+2 flux. Additional wells (in quadruplicate) are prepared with no added test or reference ligand for measurement of 100% flux. The RFU (relative fluorescence units) in the presence of the test or reference compounds is then expressed on the percent scale. The percent inhibition of epibatidine induced Ca^+2 flux is calculated as follows: % inhibition=100%−% RFU (relative fluorescence units). The IC50 values for reference and test compounds are obtained by fitting normalized RFU data using Graphpad Prism software.
# mu opioid receptor (mOR) = target: T1, mu opioid receptor (mOR) (Homo sapiens, UniProt P35372); assay: Mu opioid receptor radioligand binding; details: called weak affinity; read-out: Affinity at mu opioid receptors
# T1 construct: expressed in transfected cells; host or cells: CHO or HEK293
# Method: Established radioligand binding methods are used to evaluate the ability of the compounds to block reuptake of serotonin and dopamine in membrane preparations of synaptosomes. Equilibrium binding affinity values is determined for each compound at opioid receptors (μ and κ subtypes) and biogenic amine transporters (DAT and SERT). Where possible, binding experiments utilize membranes derived from CHO or HEK293 cells engineered to overexpress the human form of the receptor or transporter of interest. Radiolabeling of opioid receptors, and biogenic amine transporters utilizes conventional radioligands, buffers and incubation conditions according to published assays.
# Test compounds, reference compounds and the radioligand (Kd value) are added to binding buffer. Assays are run with test or reference compound over a range of concentration (0.0001-10 uM) in triplicate using a 96-well sample plate containing radioligands specific for the target receptor or transporter. […] Bound radioactivity is counted in a Microbeta scintillation counter. Total bound radioactivity is estimated from triplicate wells containing no test or reference compound, together with nonspecific binding and filter blanks. The average bound radioactivity in the presence of the test compounds is expressed % inhibition=100%−% radioactivity bound. […]
# Chain of a3b4 nAChRs (P30926 22-498): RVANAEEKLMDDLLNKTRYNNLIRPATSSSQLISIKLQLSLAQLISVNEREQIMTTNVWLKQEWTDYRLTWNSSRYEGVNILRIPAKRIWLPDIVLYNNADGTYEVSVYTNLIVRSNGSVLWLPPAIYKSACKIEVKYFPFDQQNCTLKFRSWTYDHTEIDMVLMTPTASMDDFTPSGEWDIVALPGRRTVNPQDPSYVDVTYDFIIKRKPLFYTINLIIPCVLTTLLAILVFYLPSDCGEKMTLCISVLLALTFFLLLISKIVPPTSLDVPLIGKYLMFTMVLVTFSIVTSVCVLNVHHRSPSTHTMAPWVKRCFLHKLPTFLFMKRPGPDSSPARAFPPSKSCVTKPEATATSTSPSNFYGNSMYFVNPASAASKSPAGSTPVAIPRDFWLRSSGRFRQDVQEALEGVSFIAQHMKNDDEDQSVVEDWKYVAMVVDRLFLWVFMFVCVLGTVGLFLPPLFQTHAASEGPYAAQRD
# Chain of a3b4 nAChRs (P32297 32-505): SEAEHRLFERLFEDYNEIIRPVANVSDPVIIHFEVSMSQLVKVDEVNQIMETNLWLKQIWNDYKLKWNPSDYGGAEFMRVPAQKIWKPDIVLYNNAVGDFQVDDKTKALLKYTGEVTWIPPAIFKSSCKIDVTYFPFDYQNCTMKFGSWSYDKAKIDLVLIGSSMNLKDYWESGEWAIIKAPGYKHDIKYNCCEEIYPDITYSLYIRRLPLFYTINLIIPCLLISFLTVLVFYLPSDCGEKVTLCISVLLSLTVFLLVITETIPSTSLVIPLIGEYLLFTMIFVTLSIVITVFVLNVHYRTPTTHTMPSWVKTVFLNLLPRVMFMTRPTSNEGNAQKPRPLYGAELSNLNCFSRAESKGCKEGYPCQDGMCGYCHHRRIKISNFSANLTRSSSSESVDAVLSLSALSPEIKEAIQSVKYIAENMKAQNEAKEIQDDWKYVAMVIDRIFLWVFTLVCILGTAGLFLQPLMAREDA
# T1 sequence (P35372 whole entry): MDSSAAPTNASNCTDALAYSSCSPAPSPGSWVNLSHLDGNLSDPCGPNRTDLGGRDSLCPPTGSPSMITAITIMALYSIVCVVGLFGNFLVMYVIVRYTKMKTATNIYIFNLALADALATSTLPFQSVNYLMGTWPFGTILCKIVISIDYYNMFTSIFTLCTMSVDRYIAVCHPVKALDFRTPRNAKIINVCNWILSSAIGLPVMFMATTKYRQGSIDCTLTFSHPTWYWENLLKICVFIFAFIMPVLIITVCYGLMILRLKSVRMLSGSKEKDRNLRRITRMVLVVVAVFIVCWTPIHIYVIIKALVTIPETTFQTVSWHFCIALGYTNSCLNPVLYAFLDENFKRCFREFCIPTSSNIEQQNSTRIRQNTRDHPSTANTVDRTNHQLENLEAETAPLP
Molecule,Crossing of the BBB / concentration in brain [1],"Ratio from 18-MC (relative potency at a3b4 nAChRs) (a3b4 nAChRs; ratio to 18-MC = 1, lower is more potent)",Ki (mu opioid receptor (mOR)),"Potency as inhibitor of the epibatidine-induced calcium response in a3b4 nAChRs, in words (a3b4 nAChRs; compared with 18-MC and noribogaine)"
"COCC[C@H]1CC2CN3CCc4c([nH]c5ccccc45)[C@](C(=O)OC)(C2)[C@H]13 [Compound 18-MC, 18-methoxycoronaridine]",cross the BBB and reach micromolar concentrations in brain,1,–,–
"CC[C@H]1CC2C[C@H]3c4[nH]c5ccc(O)cc5c4CCN(C2)C13 [Noribogaine, 12-hydroxyibogamine]",cross the BBB and reach micromolar concentrations in brain,–,900 nM,–
Ibogaine,–,–,–,more potent inhibitors than 18-MC
